Legend:
[1] = system: normal dermal fibroblasts; assay: MTS cell viability assay (CellTiter 96), fibroblasts; assay type: cell-based, human; settings: 48 h exposure, mean ± SEM
Description: The antiproliferative effect of complexes Fe1 and Fe2 was also tested on a nontumor cell line, fibroblasts, to evaluate their antiproliferative activity in healthy cells. For that, a range of concentrations from 0.01 to 100 µM of both complexes was used (Figure 4). As previously observed for the tumour cell lines, a concentration-dependent reduction of cell viability is observed (Figure 3 and Figure 4).
Human colorectal carcinoma (HCT116) and normal dermal fibroblasts cell lines were grown in Dulbecco’s modified Eagle’s medium (DMEM) (Invitrogen Corp., Grand Island, NY, USA) supplemented with 10% (v/v) foetal bovine serum and 1% (v/v) antibiotic/antimycotic solution (Invitrogen Corp.). […]
The evaluation of the cytotoxic potential of the complexes Fe1 and Fe2 was obtained through the measurement in vitro of the antiproliferative activity of these complexes. […] Cell viability was evaluated using CellTiter 96®Aqueous Non-Radioactive Cell Proliferation Assay (Promega, Madison, WI, USA) using 3-(4,5-dimethylthiazol-2-yl)-5-(3-carboxymethoxyphenyl)-2-(4-sulfophenyl)-2H-tetrazolium, inner salt (MTS), as described previously. […] These enzymes can reduce the MTS reagent into a brownish-coloured product called formazan, which can be quantified by measuring the absorbance at 490 nm. The quantity of product produced is directly proportional to the number of viable cells in culture. […]

HCT116 cell line = assay: MTS cell viability assay (CellTiter 96), HCT116; assay type: cell-based, human; settings: for IC50: HCT116, 48 h exposure, MTS, mean ± SEM; for SI (selectivity index): IC50 of fibroblasts / IC50 of HCT116
Description: (§1) The in vitro cytotoxic potential of complexes Fe1 and Fe2 was evaluated through the CellTiter 96®Aqueous Non-Radioactive Cell Proliferation Assay using MTS, as described in Section 3.3.2 [26].
(§2) The antiproliferative activity of both complexes was evaluated through the exposure of the A2780 cell line to 0.01–50 µM of complexes Fe1 or Fe2 (Figure 3A) and of the HCT116 cell line to 0.1–50 µM of complexes Fe1 or Fe2 (Figure 3B) for 48 h.
(§3) Human colorectal carcinoma (HCT116) and normal dermal fibroblasts cell lines were grown in Dulbecco’s modified Eagle’s medium (DMEM) (Invitrogen Corp., Grand Island, NY, USA) supplemented with 10% (v/v) foetal bovine serum and 1% (v/v) antibiotic/antimycotic solution (Invitrogen Corp.). Human ovarian carcinoma (A2780) cell line was cultivated using the Roswell Park Memorial Institute (RPMI) medium supplemented as DMEM. The supplemented medium is named complete medium. Cells were grown in an incubator with a humidified atmosphere at 5% (v/v) CO2 and 37 °C. All cell lines were purchase from ATCC (ATCC®, American Type Culture Collection, Washington, DC, USA).
(§4) The evaluation of the cytotoxic potential of the complexes Fe1 and Fe2 was obtained through the measurement in vitro of the antiproliferative activity of these complexes. Cells were plated in 96-well plates at 7.5 × 10^4 cells/mL and incubated at 37 °C with 5% (v/v) CO2. After 24 h, the culture medium was replaced with a fresh medium containing 0.01–100 µM of complexes Fe1 or Fe2 and incubated for 48 h, as described previously. DMSO 0.1% (v/v) was used as the vehicle control for all cell lines. The fibroblasts cell line was used as a control of cytotoxicity of the complexes for healthy cells. Cisplatin was used as a positive control (a common chemotherapeutic agent). Cell viability was evaluated using CellTiter 96®Aqueous Non-Radioactive Cell Proliferation Assay (Promega, Madison, WI, USA) using 3-(4,5-dimethylthiazol-2-yl)-5-(3-carboxymethoxyphenyl)-2-(4-sulfophenyl)-2H-tetrazolium, inner salt (MTS), as described previously. In metabolically active cells, enzymes present in the mitochondria catalyse a reaction in which NADPH/ NADH is produced. These enzymes can reduce the MTS reagent into a brownish-coloured product called formazan, which can be quantified by measuring the absorbance at 490 nm. The quantity of product produced is directly proportional to the number of viable cells in culture. The amount of formazan product formed was measured with a Bio-Rad Microplate Reader Model 680 (Bio-Rad, Hercules, CA, USA). Half maximal inhibitory concentration (IC50) was calculated using GraphPad Prism 6 (GraphPad Software, La Jolla, CA, USA). Selectivity index (SI) was calculated for both tumour cell lines by dividing the IC50 of fibroblasts with the IC50 of HCT116 or A2780 for complexes Fe1 and Fe2.

[2] = system: human HCT116 colorectal cancer cells; assay: Zebrafish embryo xenograft assay; assay type: in vivo; settings: compared with control
Description: HCT116 human colorectal cancer cell line was incubated in standard conditions in a humidified incubator at 37 °C and 5% CO2 until a confluence of 70–80% was reached. Afterwards, the cells were concentrated and labelled with DiI and injected in the circulation (Duct of Cuvier) of 48 hpf zebrafish embryos in order to assay the proliferation in vivo of the cells exposed to Fe1 and Fe2. Fe1 and Fe2 (5 μM and 0.25 μM, respectively) were dissolved in the water at 1-day post injection (dpi) to allow the recovery of the embryos from the injection in the first 24 h and maintained until the end of the experiment at 3 dpi. Imaging of the embryos was performed at 1 dpi and 3 dpi to quantify the fluorescence and area of the cells in the caudal hematopoietic tissue (CHT) in the tail of the embryos, where cells invade and grow, and measure their proliferation over time to assess the inhibitory effect of the compounds assayed over the cells.
The results were calculated based on a comparison between 3 dpi and 1 dpi time points and normalised at 3 dpi against control conditions due to the nature of the lipophilic dye in the proliferation of the cells. […]
At 1 dpi, the embryos were imaged, and the compound (Fe1 and Fe2) was added to the water. […] Imaging of the embryos was performed using a fluorescence stereomicroscope (AZ-100, Nikon, Tokyo, Japan). […]

[3] = Solubility in buffer aqueous media; assay type: physicochemical; settings: fully soluble on adding DMSO (final not above 0.1% v/v)
zebrafish embryos = assay: Fish embryo acute toxicity test (FET); assay type: in vivo, zebrafish (Danio rerio); settings: for LC50: early blastula stage up to 72 hpf, Logit and Probit analyses; for LOEC (lowest observed effect concentration) / NOEC (no observed effect concentration): up to 72 hpf
Description: In addition, the mortality distribution obtained for each compound allowed the accurate estimation of the LC50 (Figure 7). […] For this reason, Fe1 and Fe2 compounds were analysed in vivo using colorectal HCT116 zebrafish xenograft.
The wild-type zebrafish were housed in a water recirculation system under controlled physicochemical conditions of temperature (26 ± 2 °C), pH (7–7.5), and conductivity (400–600 µS/cm). The fertilised eggs were collected after natural spawning and housed in Petri dishes until their use. Next, eggs were exposed to Fe1 and Fe2 and dissolved in water containing 1% DMSO. Then, toxicological analyses were carried out based on the approved standard OECD TG 236—fish embryo toxicity test (FET), with modifications. For the study, four replicates of 12 embryos were distributed for each of the 5 concentrations tested for compounds; for Fe1, the concentrations used were 15, 20, 25, 30, 35 µM), and for Fe2 were 1, 5, 10, 15, 20 µM. The performed zebrafish toxicity experiments were approved by the animal care and use committee of the University of Santiago de Compostela and the standard protocols of Spain (CEEA-LU-003 and […]). The toxicity results data were analysed by probit analysis using ToxRat Software (ToxRat Solutions. 2003. ToxRat. Software for statistical analysis of bioassays. Alsdorf, Germany).

[4] = Stability in PBS by UV-visible spectrum; assay type: physicochemical; settings: PBS pH 7.0, room temperature, aerobic, over 48 h
Description: The stability of complexes Fe1 and Fe2 was evaluated over 48 h at room temperature by monitoring their UV–visible spectrum in PBS (pH 7.0) (Figure 2). […] Based on our previous works with Ru carbonyl metal complexes, we speculate that release of CO ligand, 2 in the case of Fe1 and 1 in the case of Fe2, may occur in the first 30 min, as the decrease profile is more pronounced for Fe1 with two CO ligands (Figure 2B,D). We could also speculate that, in the case of Fe1, both CO ligands might be replaced by water molecules, maintaining the previous charge on this novel Fe species (cationic), while in Fe2, the release of the CO ligand and replacement by water molecule would maintain this new Fe species neutral.
Complexes Fe1 and Fe2 solutions were prepared in 10 mM phosphate-buffered solution (PBS) containing 0.15 M NaCl (pH 7). All spectra were recorded for 48 h on a recorded with a Varian-Cary 100 Bio spectrophotometer (Agilent, Santa Clara, CA, USA), using a quartz cuvette with 1 cm path length in a wavelength range from 220 to 500 nm.

A2780 cell line = assay: MTS cell viability assay (CellTiter 96), A2780; assay type: cell-based, human; settings: for IC50: A2780, 48 h exposure, MTS, mean ± SEM; for SI (selectivity index): IC50 of fibroblasts / IC50 of A2780
Description: as §1, §2, §3, §4

Q: With Cp(IMes)Fe(CO)I [Fe2] as the compound, how does the IC50 [1] read?
A: 42 ± 0.75 µM

Q: And the IC50 (HCT116 cell line)?
A: 3.26 ± 0.1 µM

Q: And the “SI (selectivity index)” value (HCT116 cell line)?
A: 12.9

Q: What about the “proliferation of HCT116 cells in vivo” value ([2]; 0.25 μM dissolved in the water from 1 dpi to 3 dpi) of the same compound?
A: reduce the proliferation of human HCT116 colorectal cancer cells in vivo

Q: What about the solubility [3] of the same compound?
A: insoluble in buffer aqueous media

Q: What about the LC50 (zebrafish embryos) of the same compound?
A: 6.86 µM

Q: And the “LOEC (lowest observed effect concentration)” value (zebrafish embryos)?
A: 5 µM

Q: And the “NOEC (no observed effect concentration)” value (zebrafish embryos)?
A: 1 µM

Q: What about the “stability (360 nm band)” value [4] of the same compound?
A: a lower decrease of the 360 nm peak intensity occurs within the first 30 min

Q: And the IC50 (A2780 cell line)?
A: 2.91 ± 0.51 µM

Q: And the “SI (selectivity index)” value (A2780 cell line)?
A: 14.4

Q: For [Cp(IMes)Fe(CO)2]I [Fe1], which IC50 [1] is on record?
A: 23.61 ± 0.14 µM

Q: What about the IC50 (HCT116 cell line) of the same compound?
A: 0.87 ± 0.09 µM

Q: What about the “SI (selectivity index)” value (HCT116 cell line) of the same compound?
A: 27.1

Q: What about the “proliferation of HCT116 cells in vivo” value ([2]; 5 μM dissolved in the water from 1 dpi to 3 dpi) of the same compound?
A: reduce the proliferation of human HCT116 colorectal cancer cells in vivo

Q: And the solubility [3]?
A: insoluble in buffer aqueous media

Q: What about the LC50 (zebrafish embryos) of the same compound?
A: 24.6 µM

Q: And the “LOEC (lowest observed effect concentration)” value (zebrafish embryos)?
A: 20 µM

Q: And the “NOEC (no observed effect concentration)” value (zebrafish embryos)?
A: 15 µM

Q: What about the “stability (360 nm band)” value [4] of the same compound?
A: rapidly transformed into a new Fe species that is then stable, at least, until 24 h

Q: What about the IC50 (A2780 cell line) of the same compound?
A: 1.34 ± 0.25 µM

Q: What about the “SI (selectivity index)” value (A2780 cell line) of the same compound?
A: 17.7

Q: Which IC50 (HCT116 cell line) does the source give for `N.N.[Cl][Pt][Cl]` [Cisplatin, reference compound] here?
A: 15.6 ± 5.3 µM

Q: And the IC50 (A2780 cell line)?
A: 1.9 ± 0.2 µM

From paper PMC8470334, “N-Heterocyclic Carbene Iron Complexes as Anticancer Agents: In Vitro and In Vivo Biological Studies” (Molecules, 2021)
